According to patent US4490527A, “Benzo-fused heterocyclic anti-ulcer agents” (American Home Products Corporation, priority 1983, dated 1984):
“Also recorded” adds a separate entry of the source. Where a name gives a salt, the structure may show the parent alone. Read-outs that look alike come from different tables or passages of the source.

Legend:
[1] = system: gastric acid secretion; assay: gastric secretion in the rat, modified Shay procedure of pylorus ligation; assay type: in vivo; conditions: intraduodenal, 4 h, i.d., four hours after ligation, read-out: % Inhibition (of acid output)
Protocol: The procedure for testing gastric secretion in the rat, a modification of the procedure of Shay et al., Gastroenterology, 26, 906-13 (1954) is carried out as follows: Male Charles River rats weighing 200-300 grams are deprived of food but not water for 24 hours prior to use. Water is, however, withheld during the experiment. The rats are weighed, anesthetized, and the pylorus ligated according to the method of Shay et al. Treatment or vehicle control is then administered interduodenally (i.d.). Rats are housed 2/cage and sacrificed with CO2 four hours after ligation. The stomachs are removed, rinsed, and contents emptied into a graduated centrifuge tube. The tubes are centrifuged for 20 minutes at 2,000 RPM and the volume of gastric juice recorded. Any samples obviously contaminated by feces, food or hemolysis are eliminated. An aliquot of each is frozen for later analysis of Na^+, K^+ and Cl^- concentration. The pH is measured and 1 ml. of gastric juice is titrated with 0.1N NaOH to a pH of 7.0-7.4. Titratable acid output is calculated in microequivalents and the percent inhibition of acid output is calculated as follows: [formula]

[2] = system: gastric acid secretion; assay: inhibition of secretion of acidic gastric juice in dogs (Pavlov gastric pouch, fed); assay type: in vivo, dog (beagle); conditions: for ED50: Canis lupus familiaris, po, read-out: ID50 (dose at which there is obtained a 50% inhibition of the total gastric acid output)
Protocol: The procedure for testing the ability of the compounds of the invention to inhibit the secretion of acidic gastric juice in dogs is as follows: A female pure bred beagle (7-10 kg) having Pavlov gastric pouches is fasted overnight with water ad lib. The animal is orally dosed and thirty minutes later it is fed to induce gastric acid secretions. Gastric acid samples are then collected every 15 minutes. The volume of each sample is measured and aliquots are titrated to neutrality with 0.1N NaOH to determine acid concentration.

[3] = target: H2 histamine receptors (Cavia porcellus, UniProt P47747); assay: cell-based; set-up: species or system guinea pig; conditions: vs histamine dose-response, 32° C., pH 7.4
Chain of H2 histamine receptors (P47747 whole entry): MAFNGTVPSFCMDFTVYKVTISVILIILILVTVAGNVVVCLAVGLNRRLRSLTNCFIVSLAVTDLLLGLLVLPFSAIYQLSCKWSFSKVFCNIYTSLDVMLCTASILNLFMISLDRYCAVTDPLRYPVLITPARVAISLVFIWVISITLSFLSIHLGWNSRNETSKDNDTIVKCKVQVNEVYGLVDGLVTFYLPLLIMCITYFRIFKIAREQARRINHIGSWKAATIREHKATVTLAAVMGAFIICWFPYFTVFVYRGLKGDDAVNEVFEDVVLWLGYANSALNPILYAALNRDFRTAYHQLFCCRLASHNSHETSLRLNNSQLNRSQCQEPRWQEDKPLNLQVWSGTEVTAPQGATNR
Protocol: The guinea pig heart atrium test is carried out as follows:
A guinea pig right atrium is suspended at 1 g. tension (isometric) in a thermostatically controlled (32° C.) tissue bath (10 ml) containing oxygenated (95% O2 ; 5% CO2) Krebs-Haenseleit buffer (pH 7.4). The tissue is allowed to stabilize over 1 hour. Individual contractions are recorded with a force-displacement transducer through a strain gauge coupler. A control dose-response curve to histamine in the above described tissue bath is obtained after which the tissue is washed 3 times and allowed to re-equilibrate to basal rate. The test compound is added to the tissue bath at the desired final concentration. Thirty minutes after addition of the compound, a fresh histamine dose response curve is again obtained. Then the response to histamine in the presence of antagonist is compared to the histamine control response. This procedure is repeated, using fresh tissues, for each concentration of antagonist tested. […] Cimetidine is used as the standard for this test.

[4] = limitation noted in patients; cited from earlier work
[5] = orally dosed, fed thirty minutes later
[6] = 30 min after addition, results of three experiments, read-out: pA2 Value (apparent dissociation constant of the H2 antagonist) (converted)

CN(C)Cc1ccc(CSCCNC2=NS(=O)(=O)c3ccccc32)o1 [Example 1, N-[2-[[[5-[(dimethylamino)methyl]2-furanyl]methyl]thio]ethyl]-1,2-benzisothiazol-3-amine 1,1-dioxide]
inhibition in vivo at 4 mg/kg [1]: 79%
ED50 [2, 5]: 0.8 mg/kg
Kb [3, 6]: 100 nM

CCCN(CCC)Cc1cccc(OCCCNC2=NS(=O)(=O)c3ccccc32)c1.Cl [Example 18, N-[3-[3-[(dipropylamino)methyl]phenoxy]propyl]-1,2-benzisothiazol-3-amine 1,1-dioxide, hydrochloride]
inhibition in vivo at 8 mg/kg [1]: 67%
inhibition in vivo at 16 mg/kg [1]: 89%
inhibition in vivo at 32 mg/kg ([1]; Dose 32 mg/kg): 90%
ED50 [2, 5]: 1.2 mg/kg
Kb [3, 6]: 15.8 nM

O=S1(=O)N=C(NCCCOc2cccc(CN3CCCC3)c2)c2ccccc21 [Example 20, N-[3-[3-(1-pyrrolidinylmethyl)phenoxy]propyl]-1,2-benzisothiazol-3-amine 1 ,1-dioxide, hydrochloride, 1/3 hydrate]
inhibition in vivo at 2 mg/kg ([1]; Dose 2 mg/kg): 50%
ED50 [2, 5]: 1.4 mg/kg
Kb [3, 6]: 25.1 nM

Cl.O=S1(=O)N=C(NCCCOc2cccc(CN3CCCCCC3)c2)c2ccccc21 [Example 24, N-[3-[3-[(hexahydro-1H-azepin-1-yl)methyl]phenoxy]-propyl]-1,2-benzisothiazol-3-amine 1,1-dioxide, hydrochloride]
inhibition in vivo at 8 mg/kg [1]: 50%
ED50 [2, 5]: 1.2 mg/kg
Kb [3, 6]: 5.75 nM

Cl.O=S1(=O)N=C(NCCCOc2ccc(CN3CCCCC3)cc2)c2ccccc21 [Example 38, N-[3-[4-[(1-piperidinyl)methyl]phenoxy]propyl]-1,2-benzisothiazol-3-amine 1,1-dioxide, hydrochloride]
inhibition in vivo at 1 mg/kg [1]: 34%
inhibition in vivo at 4 mg/kg [1]: 52%
inhibition in vivo at 16 mg/kg [1]: 93%
ED50 [2, 5]: 2 mg/kg
Kb [3, 6]: 23.4 nM

O=S1(=O)N=C(NCCCOc2cccc(CN3CCCCC3)c2)c2cscc21 [Example 41]
inhibition in vivo at 0.5 mg/kg ([1]; Dose 0.5 mg/kg): 37%
inhibition in vivo at 1 mg/kg [1]: 84%
inhibition in vivo at 4 mg/kg [1]: 87%
inhibition in vivo at 8 mg/kg [1]: 91%
ED50 [2, 5]: 0.25 mg/kg
reduced gastric acid secretions ([2]; dose of 1 mg/kg, orally dosed): 82%
Kb ([3]; marked *, result of only one experiment, read-out: KB value): 5.94 nM

CN/C(=N/CCSCc1nc[nH]c1C)NC#N [cimetidine]
duration of action [4]: short duration of action
side effects [4]: anti-androgenic activity; also recorded: tendency to cause confusional states in elderly patients
ED50 [2]: 6 mg/kg

CNC(=C[N+](=O)[O-])NCCSCc1ccc(CN(C)C)o1 [ranitidine, reference compound]
inhibition in vivo at 4 mg/kg [1]: 43%
ED50 [2, 5]: 2.3 mg/kg
